According to patent US20220362182A1, “METHODS FOR REVERSING HEPATIC STEATOSIS” (BRIGHTSEED, INC., priority 2020, published 2022):
“Also recorded” adds a separate entry of the source. Read-outs that look alike come from different tables or passages of the source.

Columns and labels:
PPARγ receptor = biological target: T1, PPARγ receptor (Homo sapiens, UniProt P37231); assay: assay for PPARγ agonist activity; format: cell-based; conditions: false-positive counter assay
T1 sequence (P37231 1-505): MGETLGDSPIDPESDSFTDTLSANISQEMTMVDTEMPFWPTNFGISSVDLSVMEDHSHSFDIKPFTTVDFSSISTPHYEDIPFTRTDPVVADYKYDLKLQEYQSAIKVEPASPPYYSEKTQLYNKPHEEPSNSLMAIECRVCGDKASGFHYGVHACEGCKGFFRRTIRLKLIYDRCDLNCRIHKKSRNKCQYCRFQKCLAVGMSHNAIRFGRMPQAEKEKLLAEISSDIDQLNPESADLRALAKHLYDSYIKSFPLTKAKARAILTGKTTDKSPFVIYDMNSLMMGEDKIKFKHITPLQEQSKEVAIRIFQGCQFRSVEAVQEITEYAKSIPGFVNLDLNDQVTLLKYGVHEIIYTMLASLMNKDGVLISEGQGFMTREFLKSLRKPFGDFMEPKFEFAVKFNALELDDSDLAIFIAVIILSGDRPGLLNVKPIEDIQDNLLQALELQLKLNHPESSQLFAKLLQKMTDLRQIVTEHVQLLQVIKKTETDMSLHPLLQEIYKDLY

murine PK = conditions: mouse, in vivo
Procedure: Murine PK was conducted by WuXi AppTec (Shanghai, China). C57BL/6 male mice of age 7-9 weeks were obtained from SLAC Laboratory Animal Co (Shanghai, China). Mice were fasted for 12 h prior to compound administration. Oral gavage was used for PO dosing. For IV dosing, compound was administered by tail vein injection. For compound concentration determination, 25 μL of blood was collected from the submandibular or saphenous vein and processed for plasma. Plasma concentration of compound was determined by LC-MS/MS.

HNF4α [1] = biological target: T2, HNF4α (Homo sapiens, UniProt P41235); assay: T6PNE insulin promoter assay (human insulin promoter-GFP transgene); format: cell-based; set-up: endogenous in cells; host or cells: T6PNE cells; conditions: T6PNE cells; for insulin promoter activity / HNF4α activation: GFP-positive cells relative to DMSO; for dose responsiveness in the INS promoter assay: multiple doses
T2 sequence (P41235 1-474): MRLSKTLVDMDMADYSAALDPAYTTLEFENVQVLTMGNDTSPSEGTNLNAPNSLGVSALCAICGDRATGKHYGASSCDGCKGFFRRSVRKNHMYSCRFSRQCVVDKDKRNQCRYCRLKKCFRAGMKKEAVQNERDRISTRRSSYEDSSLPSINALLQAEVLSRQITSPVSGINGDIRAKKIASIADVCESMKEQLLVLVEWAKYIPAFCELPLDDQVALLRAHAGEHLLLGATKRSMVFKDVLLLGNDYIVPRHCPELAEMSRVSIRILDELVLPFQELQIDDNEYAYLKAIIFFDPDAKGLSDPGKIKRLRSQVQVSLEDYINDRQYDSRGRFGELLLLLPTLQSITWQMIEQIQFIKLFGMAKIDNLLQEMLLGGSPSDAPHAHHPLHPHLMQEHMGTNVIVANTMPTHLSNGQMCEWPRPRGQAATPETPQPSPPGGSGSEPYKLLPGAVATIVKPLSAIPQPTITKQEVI
Procedure: The T6PNE insulin promoter assay has been described previously and was performed here with slight modifications as follows: T6PNE cells were seeded at 200 cells per well in 384-well tissue culture plates (Greiner Bio-One) in the presence of 0.5 μM tamoxifen. Compounds described herein in DMSO were dispensed with an Echo 555 Acoustic Liquid Handler (Beckman Coulter). Three days after compound addition, cells were fixed in 4% paraformaldehyde (USBio) for 15 min and stained with DAPI (0.167 μg/ml, Invitrogen). Blue (DAPI) and green (GFP) channels were imaged using a Celigo imaging cytometer (Nexcelom Bioscience). The number of GFPpositive cells was normalized to the DAPI-positive cell number and fold change calculated relative to the DMSO control.
T6PNE cells were maintained in RPMI (5.5mM glucose, Corning) supplemented with 10% fetal bovine serum (FBS, Sigma-Aldrich) and 1% penicillin-streptomycin (pen-strep, Gibco). Cells were maintained in 5% CO2 at 37° C. For the insulin promoter assay, 0.5 μM tamoxifen (Sigma-Aldrich) was added to T6PNE cell culture media. HepG2 or HeLa cells were cultured in DMEM (high glucose, Corning) supplemented with 10% FBS and 1% pen-strep and maintained at 5% CO2, 37° C.

[2] = animal cells and mice; cited from earlier work
INS mRNA = assay: insulin mRNA qPCR in T6PNE cells; format: cell-based, human
Procedure: (§1) Quantitative PCR (Q-PCR) from in vitro cell culture experiments used total RNA purified using RNeasy Kits (Qiagen). For liver tissue samples, total RNA was isolated using Trizol (Invitrogen) and prepared for RNAseq (mouse liver DMSO and NCT, N=3). cDNA was amplified using 3 μg of total RNA using qScript cDNA SuperMix (Quanta BioSciences, Beverly, Mass., USA). QPCR analysis was performed using SYBR® Select Master Mix (Applied Biosystems) and ABI 7900HT (Applied Biosystems, Thermo Fisher Scientific). The Ct values of mRNA expression were then normalized to the 18 s rRNA values and are expressed as fold change over samples from mice fed normal chow for in vivo experiments or DMSO controls for cell culture experiments.

HNF4α mRNA = HNF4α mRNA qPCR in T6PNE cells; format: cell-based, human
Procedure: as §1

HNF4α [3] = biological target: T2, HNF4α; assay: DARTS assay (HNF4α protease sensitivity) in HepG2 cells; format: binding; set-up: Total cell protein was extracted; endogenous in cells; host or cells: HepG2 cells; conditions: 40 or 80 μM for 16 h, subtilisin
Procedure: DARTS assays were conducted as described in the art. HepG2 cells were treated with DMSO, BI6015, NCT, NFT at a concentration of 40 or 80 μM for 16 hr. Total cell protein was extracted and measured by BCA protein assay (Thermo Scientific). Each sample was split into two aliquots for proteolysis without (−) or with (+) Subtilisin (Sigma-Aldrich). Forty […] of cell lysate was incubated with or without protease (40 ng/ml subtilisin) for 35 min at room temperature.
Whole-cell extracts were prepared by incubation in RIPA buffer (Invitrogen) containing protease inhibitors (Calbiochem, San Diego, Calif.). Protein ([…]) was separated on 12% or 16% Tri-Glycine gels (Invitrogen) and transferred to Immobilon P membrane (0.2 μm pore, Millipore). After 1 h in phosphate-buffered saline-Tween (PBST) with 3% milk, membrane was incubated with antibodies to HNF4α (mouse, Novus, 1:1000), LC3B (rabbit, Novus, 1:500), p62 (SQSTM1, mouse, Santa Cruz, 1:1000) or β-actin (mouse, Santa Cruz, 1:2000), followed by secondary antibody conjugated to horseradish peroxidase (1:5000, Jackson Immune).

SMILES	PPARγ receptor agonist activity (PPARγ receptor)	oral bioavailability (murine PK)	insulin promoter activity / HNF4α activation (HNF4α [1])	dose responsiveness in the INS promoter assay (HNF4α [1])	anti-inflammatory properties [2]	INS mRNA (INS mRNA)	HNF4α mRNA (HNF4α mRNA)	HNF4α mRNA (HNF4α mRNA; listed as N-trans-caffeoyltyramine)	HNF4α proteolytic sensitivity / conformational change (HNF4α [3])
O=C(/C=C/c1ccc(O)c(O)c1)NCCc1ccc(O)cc1 [NCT, N-trans-caffeoyltyramine]	no estrogenic or PPARγ receptor agonist activity	poor oral bioavailability	more potent activators; also recorded: strongest inducer of insulin promoter activity; also recorded: much more potent	exhibited dose responsiveness	anti-inflammatory properties	increased	increased; also recorded: induced HNF4α expression	induces the expression of HNF4a mRNA	induced a change in HNF4α proteolytic sensitivity
COc1cc(/C=C/C(=O)NCCc2ccc(O)cc2)ccc1O [NFT, N-trans feruloyltyramine]	no estrogenic or PPARγ receptor agonist activity	poor oral bioavailability	more potent activators; also recorded: approximately as active as alverine; also recorded: much more potent	exhibited dose responsiveness	anti-inflammatory properties	increased	increased; also recorded: induced HNF4α expression		induced a change in HNF4α proteolytic sensitivity
